Assay [1] concerns the target T1, Muscarinic acetylcholine receptor M5 (Homo sapiens, UniProt P08912). Also: in other assays of this panel Not Active means under 50% inhibition at 10 µM.
T1 sequence (P08912 whole entry): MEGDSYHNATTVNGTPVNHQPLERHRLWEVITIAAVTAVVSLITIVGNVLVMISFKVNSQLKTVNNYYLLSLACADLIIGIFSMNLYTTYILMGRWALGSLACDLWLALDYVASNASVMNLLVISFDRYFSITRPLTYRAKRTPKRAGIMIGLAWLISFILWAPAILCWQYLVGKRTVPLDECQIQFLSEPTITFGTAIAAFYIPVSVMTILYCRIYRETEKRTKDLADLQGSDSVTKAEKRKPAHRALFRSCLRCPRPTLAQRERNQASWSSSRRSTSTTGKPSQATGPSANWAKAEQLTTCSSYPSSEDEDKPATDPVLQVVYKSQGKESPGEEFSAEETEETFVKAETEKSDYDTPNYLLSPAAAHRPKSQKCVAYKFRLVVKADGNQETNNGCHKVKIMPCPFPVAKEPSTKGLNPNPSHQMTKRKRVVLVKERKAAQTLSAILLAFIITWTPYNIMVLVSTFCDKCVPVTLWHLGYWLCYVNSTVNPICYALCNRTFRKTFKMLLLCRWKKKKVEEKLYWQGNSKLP
It is filed as cell membranes, Membrane. As to conditions: cho-k1.

The target in assay [2] is T2, Alpha-1B adrenergic receptor (Rattus norvegicus, UniProt P15823).
T2 sequence (P15823 whole entry): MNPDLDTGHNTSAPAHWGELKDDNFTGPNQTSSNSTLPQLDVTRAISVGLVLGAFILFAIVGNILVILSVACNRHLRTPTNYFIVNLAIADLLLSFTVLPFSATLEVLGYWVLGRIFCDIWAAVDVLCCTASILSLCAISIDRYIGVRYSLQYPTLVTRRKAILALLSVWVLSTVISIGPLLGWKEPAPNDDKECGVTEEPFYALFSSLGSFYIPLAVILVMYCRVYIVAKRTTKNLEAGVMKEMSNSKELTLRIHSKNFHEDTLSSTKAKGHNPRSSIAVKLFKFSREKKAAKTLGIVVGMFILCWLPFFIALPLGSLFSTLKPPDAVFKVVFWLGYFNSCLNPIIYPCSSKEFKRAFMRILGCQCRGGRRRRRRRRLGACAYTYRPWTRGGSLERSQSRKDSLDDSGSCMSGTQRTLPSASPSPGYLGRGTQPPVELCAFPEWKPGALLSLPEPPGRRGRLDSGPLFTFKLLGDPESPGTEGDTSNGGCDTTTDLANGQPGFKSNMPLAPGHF
Description: DRUGMATRIX: Alpha-1B adrenergic receptor radioligand binding (ligand: prazosin). As to conditions: Not Active = under 50% inhibition at 10 µM; for Ki: read-out: Ki. Format: cell membranes, Wistar, Liver, Membrane.

The target in another assay is D(3) dopamine receptor (Homo sapiens, UniProt P35462). Description: DRUGMATRIX: Dopamine D3 radioligand binding (ligand: [3H] Spiperone). It is filed as cell membranes, CHO, Membrane. As to conditions: for Ki: read-out: Ki.
D(3) dopamine receptor, sequence (P35462 whole entry): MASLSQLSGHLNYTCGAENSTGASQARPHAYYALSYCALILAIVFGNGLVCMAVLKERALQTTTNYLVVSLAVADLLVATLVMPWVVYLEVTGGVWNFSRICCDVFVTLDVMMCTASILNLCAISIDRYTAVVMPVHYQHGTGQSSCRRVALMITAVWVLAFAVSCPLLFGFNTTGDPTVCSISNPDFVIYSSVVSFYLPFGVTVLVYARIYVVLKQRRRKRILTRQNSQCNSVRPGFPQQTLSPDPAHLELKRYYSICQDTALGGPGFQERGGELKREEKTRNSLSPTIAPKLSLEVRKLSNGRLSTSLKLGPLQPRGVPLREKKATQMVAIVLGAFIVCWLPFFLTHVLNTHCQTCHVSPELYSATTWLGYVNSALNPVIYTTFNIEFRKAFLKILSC
Assay [3] addresses Matrix metalloproteinase-9 (Homo sapiens, UniProt P14780). Description: biochemical. Format: cell-based.
Assay [4] addresses Beta-1 adrenergic receptor (Homo sapiens, UniProt P08588). The assay is described as follows: DRUGMATRIX: Adrenergic beta1 radioligand binding (ligand: [125I] Cyanopindolol). Format: cell membranes, CHO-K1, Membrane. The note with it: Not Active = under 50% inhibition at 10 µM.
The target of assay [5] is T3, Polyunsaturated fatty acid lipoxygenase ALOX15 (Oryctolagus cuniculus, UniProt P12530).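 Also: inhibition of 15-lipoxygenase enzyme activity measured with linoleic acid as the substrate; in other assays of this panel Not Active means under 50% inhibition at 10 µM.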
T3 sequence (P12530 whole entry): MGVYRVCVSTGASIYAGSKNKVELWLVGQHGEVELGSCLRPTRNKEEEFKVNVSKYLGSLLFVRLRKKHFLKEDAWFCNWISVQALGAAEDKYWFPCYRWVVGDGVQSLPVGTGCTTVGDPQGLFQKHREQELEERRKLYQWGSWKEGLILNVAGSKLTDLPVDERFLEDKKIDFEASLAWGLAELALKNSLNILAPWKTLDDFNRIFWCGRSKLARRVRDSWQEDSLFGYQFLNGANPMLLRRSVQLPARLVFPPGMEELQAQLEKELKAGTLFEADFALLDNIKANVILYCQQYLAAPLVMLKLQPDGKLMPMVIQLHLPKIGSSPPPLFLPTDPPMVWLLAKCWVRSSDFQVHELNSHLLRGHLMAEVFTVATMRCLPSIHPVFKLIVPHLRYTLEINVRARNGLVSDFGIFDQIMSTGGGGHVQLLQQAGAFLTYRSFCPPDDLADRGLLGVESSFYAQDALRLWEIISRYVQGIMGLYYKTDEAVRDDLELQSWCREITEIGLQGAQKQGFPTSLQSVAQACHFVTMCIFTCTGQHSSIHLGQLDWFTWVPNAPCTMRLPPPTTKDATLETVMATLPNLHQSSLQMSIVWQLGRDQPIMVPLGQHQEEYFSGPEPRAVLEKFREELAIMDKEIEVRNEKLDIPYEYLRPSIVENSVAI
The assay is described as follows: biochemical. Format: tissue-based, Reticulocytes.

Beta-1 adrenergic receptor, sequence (P08588 whole entry): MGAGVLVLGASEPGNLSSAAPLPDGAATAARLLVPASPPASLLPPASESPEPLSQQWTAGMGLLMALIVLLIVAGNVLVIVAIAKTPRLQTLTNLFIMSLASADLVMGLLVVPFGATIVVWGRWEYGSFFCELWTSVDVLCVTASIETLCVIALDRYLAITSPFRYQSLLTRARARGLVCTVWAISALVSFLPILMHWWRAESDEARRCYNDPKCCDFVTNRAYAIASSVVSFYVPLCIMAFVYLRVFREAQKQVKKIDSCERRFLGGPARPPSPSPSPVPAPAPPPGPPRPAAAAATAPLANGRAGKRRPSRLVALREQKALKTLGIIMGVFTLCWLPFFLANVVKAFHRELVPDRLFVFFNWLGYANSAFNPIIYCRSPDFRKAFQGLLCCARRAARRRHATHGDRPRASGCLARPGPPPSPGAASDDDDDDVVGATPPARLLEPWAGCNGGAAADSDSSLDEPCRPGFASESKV
Matrix metalloproteinase-9, sequence (P14780 whole entry): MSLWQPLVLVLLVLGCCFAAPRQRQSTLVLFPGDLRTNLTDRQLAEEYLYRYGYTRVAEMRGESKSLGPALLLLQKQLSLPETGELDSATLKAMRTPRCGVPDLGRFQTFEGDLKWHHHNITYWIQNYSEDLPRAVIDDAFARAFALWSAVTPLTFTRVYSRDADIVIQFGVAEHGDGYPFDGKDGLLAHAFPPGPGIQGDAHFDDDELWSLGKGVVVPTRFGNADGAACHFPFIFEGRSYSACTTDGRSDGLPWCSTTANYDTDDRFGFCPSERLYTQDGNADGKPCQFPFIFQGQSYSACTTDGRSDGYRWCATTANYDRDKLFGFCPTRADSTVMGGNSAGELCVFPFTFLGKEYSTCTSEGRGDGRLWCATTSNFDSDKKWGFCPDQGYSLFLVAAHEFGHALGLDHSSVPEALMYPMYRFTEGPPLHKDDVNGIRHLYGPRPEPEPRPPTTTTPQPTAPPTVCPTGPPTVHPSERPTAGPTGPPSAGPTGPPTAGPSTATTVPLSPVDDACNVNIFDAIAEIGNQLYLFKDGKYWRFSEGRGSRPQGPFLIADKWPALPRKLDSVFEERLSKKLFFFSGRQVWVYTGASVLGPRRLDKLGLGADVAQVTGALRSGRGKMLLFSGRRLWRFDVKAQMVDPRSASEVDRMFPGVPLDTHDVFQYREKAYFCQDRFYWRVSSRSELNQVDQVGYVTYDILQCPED

For the compound `O=P1(N(CCCl)CCCl)NCCCO1` (stereo unspecified) [CYCLOPHOSPHAMIDE ANHYDROUS], the 50% inhibitory concentration (IC50) entry (in assay [1]; in assay [2]; on D(3) dopamine receptor (cho); in assay [3]; in assay [4] (cho-k1); in assay [5] (reticulocytes)) was “Not Active” in each case.
`CC(=O)O[C@]1(C(C)=O)CC[C@H]2[C@@H]3C=C(Cl)C4=CC(=O)[C@@H]5C[C@@H]5[C@]4(C)[C@H]3CC[C@@]21C` [CYPROTERONE ACETATE]: the IC50 entry (in assay [1]; in assay [2]; at D(3) dopamine receptor (cho); in assay [3]; in assay [4] (cho-k1); in assay [5] (reticulocytes)) was “Not Active” in each case.
Take `Nc1nc(N)nc(NC2CC2)n1` [CYROMAZINE]: the IC50 entry (in assay [1]; in assay [2]; on D(3) dopamine receptor (cho); in assay [3]; in assay [4] (cho-k1); in assay [5] (reticulocytes)) was “Not Active” in each case.
On to `C#C[C@]1(O)CC[C@H]2[C@@H]3CCC4=Cc5oncc5C[C@]4(C)[C@H]3CC[C@@]21C` [DANAZOL], for which the 50% inhibitory concentration (IC50) entry was “Not Active” in assay [1]; “Not Active” in assay [2]; 28900 nM at D(3) dopamine receptor (read-out: IC50); “Not Active” in assay [3]; “Not Active” in assay [4] (cho-k1); “Not Active” in assay [5] (reticulocytes). Besides, the Ki at D(3) dopamine receptor worked out at 9800 nM.
On to `CCN[C@@H](C)Cc1cccc(C(F)(F)F)c1` [DEXFENFLURAMINE], for which the 50% inhibitory concentration (IC50) entry (in assay [1]; in assay [2]; at D(3) dopamine receptor (cho); in assay [3]; in assay [4] (cho-k1); in assay [5] (reticulocytes)) was “Not Active” in each case.
As to `C[C@H](C(=O)O)c1cccc(C(=O)c2ccccc2)c1` [DEXKETOPROFEN], the half-inhibitory concentration (IC50) result (in assay [1]; in assay [2]; at D(3) dopamine receptor (cho); in assay [3]; in assay [4] (cho-k1); in assay [5] (reticulocytes)) was “Not Active” throughout.
On to `CN1C(=O)CN=C(c2ccccc2)c2cc(Cl)ccc21` [DIAZEPAM], for which the concentration for half-maximal inhibition (IC50) entry (in assay [1]; in assay [2]; at D(3) dopamine receptor (cho); in assay [3]; in assay [4] (cho-k1); in assay [5] (reticulocytes)) was “Not Active” in each case.
Turning to `CN1C[C@H](C(=O)N[C@]2(C)O[C@@]3(O)[C@@H]4CCCN4C(=O)[C@H](Cc4ccccc4)N3C2=O)C[C@@H]2c3cccc4[nH]cc(c34)C[C@H]21` [DIHYDROERGOTAMINE], the IC50 entry in assay [1] is “Not Active”; in assay [2] (read-out: IC50), 8.09 nM; on D(3) dopamine receptor (read-out: IC50), 5.34 nM; in assay [3] it was “Not Active”; in assay [4] (cho-k1) it was “Not Active”; in assay [5] (reticulocytes), “Not Active”. The figures for the inhibitory constant (Ki) (in assay [2]; at D(3) dopamine receptor) were 4.48 nM and 1.81 nM, respectively.
Regarding `Cc1c(N(C)CS(=O)(=O)[O-])c(=O)n(-c2ccccc2)n1C.[Na+]` [DIPYRONE SODIUM], the IC50 result (in assay [1]; in assay [2]; on D(3) dopamine receptor (cho); in assay [3]; in assay [4] (cho-k1); in assay [5] (reticulocytes)) was “Not Active” each time.
Regarding `CC(CCc1ccc(O)cc1)NCCc1ccc(O)c(O)c1` (stereo unspecified) [DOBUTAMINE], the IC50 entry in assay [1] is “Not Active”; in assay [2] (read-out: IC50), 336 nM; on D(3) dopamine receptor (read-out: IC50), 4990 nM; in assay [3], “Not Active”; in assay [4] (read-out: IC50), 1940 nM; in assay [5] (read-out: IC50) it was 599 nM. For the same compound, the Ki came to 186 nM in assay [2], 1690 nM on D(3) dopamine receptor and 1120 nM in assay [4] (read-out: Ki).
Consider `CCn1cc(C(=O)O)c(=O)c2cc(F)c(N3CCNCC3)nc21` [ENOXACIN], for which the half-maximal inhibitory concentration (IC50) result (in assay [1]; in assay [2]; on D(3) dopamine receptor (cho); in assay [3]; in assay [4] (cho-k1); in assay [5] (reticulocytes)) was “Not Active” in each case.
Regarding `CCC(=O)O[C@H]1[C@H](O[C@@H]2[C@@H](C)[C@H](O[C@H]3C[C@@](C)(OC)[C@@H](O)[C@H](C)O3)[C@@H](C)C(=O)O[C@H](CC)[C@@](C)(O)[C@H](O)[C@@H](C)C(=O)[C@H](C)C[C@@]2(C)O)O[C@H](C)C[C@@H]1N(C)C` [ERYTHROMYCIN PROPIONATE], the concentration for half-maximal inhibition (IC50) entry (in assay [1]; in assay [2]; at D(3) dopamine receptor (cho); in assay [3]; in assay [4] (cho-k1); in assay [5] (reticulocytes)) was “Not Active” throughout.
Regarding `C=C(CC)C(=O)c1ccc(OCC(=O)O)c(Cl)c1Cl` [ETHACRYNIC ACID], the IC50 result (in assay [1]; in assay [2]; at D(3) dopamine receptor (cho); in assay [3]; in assay [4] (cho-k1); in assay [5] (reticulocytes)) was “Not Active” in each case.
In the case of `C#C[C@]1(O)CC[C@H]2[C@@H]3CCc4cc(O)ccc4[C@H]3CC[C@@]21C` [ETHINYL ESTRADIOL], the concentration for half-maximal inhibition (IC50) entry in assay [1] is “Not Active”; in assay [2] it was “Not Active”; on D(3) dopamine receptor (cho), “Not Active”; in assay [3], “Not Active”; in assay [4] (cho-k1) it was “Not Active”; in assay [5] (read-out: IC50), 5680 nM.
For the compound `OCCO` [ETHYLENE GLYCOL], the concentration for half-maximal inhibition (IC50) entry (in assay [1]; in assay [2]; on D(3) dopamine receptor (cho); in assay [3]; in assay [4] (cho-k1); in assay [5] (reticulocytes)) was “Not Active” throughout.
With `CC(=O)OCC(CCn1cnc2cnc(N)nc21)COC(C)=O` [FAMCICLOVIR], the half-inhibitory concentration (IC50) entry (in assay [1]; in assay [2]; at D(3) dopamine receptor (cho); in assay [3]; in assay [4] (cho-k1); in assay [5] (reticulocytes)) was “Not Active” each time.
Take `O=C(O)Cc1ccc(-c2ccccc2)cc1` [FELBINAC]: the IC50 result (in assay [1]; in assay [2]; at D(3) dopamine receptor (cho); in assay [3]; in assay [4] (cho-k1); in assay [5] (reticulocytes)) was “Not Active” in each case.
For the compound `CCOC(=O)C1=C(C)NC(C)=C(C(=O)OC)C1c1cccc(Cl)c1Cl` (stereo unspecified) [FELODIPINE], the 50% inhibitory concentration (IC50) entry (in assay [1]; in assay [2]; on D(3) dopamine receptor (cho); in assay [3]; in assay [4] (cho-k1); in assay [5] (reticulocytes)) was “Not Active” each time.
For the compound `CC(C(=O)O)c1ccc(-c2ccccc2)c(F)c1` (stereo unspecified) [FLURBIPROFEN], the IC50 result (in assay [1]; in assay [2]; on D(3) dopamine receptor (cho); in assay [3]; in assay [4] (cho-k1); in assay [5] (reticulocytes)) was “Not Active” each time.
For `Cc1cn[nH]c1` [FOMEPIZOLE], the 50% inhibitory concentration (IC50) entry (in assay [1]; in assay [2]; on D(3) dopamine receptor (cho); in assay [3]; in assay [4] (cho-k1); in assay [5] (reticulocytes)) was “Not Active” each time.

Source of the values: ChEMBL document CHEMBL1909046, “DrugMatrix in vitro pharmacology data”.
